Reference: ChEMBL document CHEMBL1201862, “PubChem BioAssay data set” (2004)
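Interpolation was linear, between the two tested concentrations surrounding the appropriate level; five concentrations were tested over 48 hours in 96-well plates. At the GI50, growth is halved.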 Active and inactive are the calls of the source. No stated cut-off is given here; in the data, active = GI50 up to about 1.1 µM and inactive = higher.

What was measured:
Experiment in all cases: growth of human tumour cells (NCI), 48 h
SW-620 = test system: SW-620
DU-145 = test system: DU-145
RPMI-8226 = test system: RPMI-8226
MCF7 = test system: MCF7
NCI-H460 = test system: NCI-H460
UO-31 = test system: UO-31
SK-MEL-28 = test system: SK-MEL-28
LOX IMVI = test system: LOX IMVI
OVCAR-4 = test system: OVCAR-4
MDA-N = test system: MDA-N
BT-549 = test system: BT-549
UACC-62 = test system: UACC-62
HOP-92 = test system: HOP-92
SF-295 = test system: SF-295
HCT-116 = test system: HCT-116
MOLT-4 = test system: MOLT-4
IGROV-1 = test system: IGROV-1
SF-268 = test system: SF-268
CCRF-CEM = test system: CCRF-CEM
K562 = test system: K562

Row | SMILES | GI50 (SW-620) | GI50 (DU-145) | GI50 (RPMI-8226) | GI50 (MCF7) | GI50 (NCI-H460) | GI50 (UO-31) | GI50 (SK-MEL-28) | GI50 (LOX IMVI) | GI50 (OVCAR-4) | GI50 (MDA-N) | GI50 (BT-549) | GI50 (UACC-62) | GI50 (HOP-92) | GI50 (SF-295) | GI50 (HCT-116) | GI50 (MOLT-4) | GI50 (IGROV-1) | GI50 (SF-268) | GI50 (CCRF-CEM) | GI50 (K562)
1 | CN(CCCNC(=O)c1nn(-c2ccccc2)c2c1Cc1ccccc1-2)CCCNC(=O)c1nn(-c2ccccc2)c2c1Cc1ccccc1-2 | 1.31 µM (inactive) | 1.7 µM (inactive) | 1.72 µM (inactive) | 1.63 µM (inactive) | 1.66 µM (inactive) | 1.61 µM (inactive) | 1.59 µM (inactive) | 1.51 µM (inactive) | 0.929 µM (active) | 1.5 µM (inactive) | 1.56 µM (inactive) | 1.77 µM (inactive) | 1.57 µM (inactive) | 1.84 µM (inactive) | 1.65 µM (inactive) | 1.12 µM (active) | 1.51 µM (inactive) | 1.63 µM (inactive) | 1 µM (active) | 0.55 µM (active)
2 | CC(C)CNP(=O)(NCC(C)C)Oc1ccc(CC(NC(=O)OCc2ccccc2)C(=O)OCc2ccccc2)cc1 (stereo not drawn) | 20.4 µM (inactive) | 9.46 µM (inactive) | 14.5 µM (inactive) | 11.1 µM (inactive) | 18.1 µM (inactive) | 20.3 µM (inactive) | 15.4 µM (inactive) | 16.1 µM (inactive) | 18.3 µM (inactive) | 18.8 µM (inactive) | 20.7 µM (inactive) | 18.5 µM (inactive) | 61.4 µM (inactive) | 18.5 µM (inactive) | 18.7 µM (inactive) | 13.9 µM (inactive) | 35.4 µM (inactive) | 17.6 µM (inactive) | 4.99 µM (inactive) | 20 µM (inactive)
3 | CCOC(=O)C(C)c1nc2cc(C(F)(F)F)ccc2[nH]c1=O (stereo not drawn) | > 100 µM (inactive) | 84.5 µM (inactive) | 51.9 µM (inactive) | > 100 µM (inactive) | > 100 µM (inactive) | > 100 µM (inactive) | > 100 µM (inactive) | > 100 µM (inactive) | 81.5 µM (inactive) | > 100 µM (inactive) | > 100 µM (inactive) | > 100 µM (inactive) | 71.1 µM (inactive) | 49.2 µM (inactive) | 88.9 µM (inactive) | 85.5 µM (inactive) |  | > 100 µM (inactive) | > 100 µM (inactive) | 59.8 µM (inactive)
4 | CCn1cnc2c(NC(C)=O)ncnc21 | > 100 µM (inactive) | > 100 µM (inactive) | > 100 µM (inactive) | > 100 µM (inactive) | > 100 µM (inactive) | > 100 µM (inactive) | > 100 µM (inactive) | > 100 µM (inactive) | > 100 µM (inactive) | > 100 µM (inactive) | > 100 µM (inactive) | > 100 µM (inactive) | > 100 µM (inactive) | > 100 µM (inactive) | > 100 µM (inactive) | > 100 µM (inactive) | > 100 µM (inactive) |  | > 100 µM (inactive) | > 100 µM (inactive)
5 | CC(C)(C)OC(=O)C1C(=O)NC(=O)CC1CC(OCc1ccccc1)C(COCc1ccccc1)OCc1ccccc1 (stereo not drawn) | 9.33 µM (inactive) | 23.6 µM (inactive) | 3.07 µM (inactive) | 4.51 µM (inactive) | 13.4 µM (inactive) | 2.19 µM (inactive) | 29.4 µM (inactive) | 10.9 µM (inactive) | 6.55 µM (inactive) | 16.2 µM (inactive) | 5.48 µM (inactive) |  | 11.9 µM (inactive) | 8.38 µM (inactive) | 5.36 µM (inactive) | 2.88 µM (inactive) | 23.2 µM (inactive) | 11.3 µM (inactive) | 11.6 µM (inactive) | 5.19 µM (inactive)
6 | CC(=O)OC/C=C(/C=C/CNC1CCCCC1)OC(C)=O | 14 µM (inactive) | 17 µM (inactive) | 4.83 µM (inactive) | 22 µM (inactive) | 24.1 µM (inactive) |  | 16.8 µM (inactive) | 19.1 µM (inactive) | 20.8 µM (inactive) | 18 µM (inactive) | 16.9 µM (inactive) | 19.1 µM (inactive) | 12.5 µM (inactive) | 18.1 µM (inactive) | 14.9 µM (inactive) | 36.2 µM (inactive) | 18.6 µM (inactive) | 17.1 µM (inactive) | 4.34 µM (inactive) | 12.9 µM (inactive)
7 | Cn1c2ccccc2c2c3c(c4c5ccccc5n(C)c4c21)C(=O)N(c1ccccc1)C3=O | > 100 µM (inactive) | > 100 µM (inactive) | > 100 µM (inactive) | > 100 µM (inactive) | > 100 µM (inactive) | > 100 µM (inactive) | > 100 µM (inactive) | > 100 µM (inactive) | > 100 µM (inactive) | > 100 µM (inactive) | > 100 µM (inactive) | > 100 µM (inactive) | > 100 µM (inactive) | > 100 µM (inactive) | > 100 µM (inactive) | > 100 µM (inactive) | 98.6 µM (inactive) |  | > 100 µM (inactive) | > 100 µM (inactive)
8 | CC(=O)OCCC1c2ccccc2-n2nc(-c3ccccc3)c(O)c21 (stereo not drawn) | 15.8 µM (inactive) | 17.7 µM (inactive) | 8.07 µM (inactive) | 7.11 µM (inactive) | 14.5 µM (inactive) | 16.7 µM (inactive) | 16.2 µM (inactive) | 13.7 µM (inactive) | 14.3 µM (inactive) | 17.5 µM (inactive) | 17.1 µM (inactive) |  | 11.9 µM (inactive) | 20 µM (inactive) | 16.5 µM (inactive) | 9.66 µM (inactive) | > 10 µM (inactive) | 34.7 µM (inactive) | 11.6 µM (inactive) | 10.8 µM (inactive)
9 | COc1cc(C(c2ccccc2)N2C(=O)CC[C@H]2C(=O)O)cc(OC)c1OC (stereo partly drawn) | > 100 µM (inactive) | > 100 µM (inactive) | > 100 µM (inactive) | > 100 µM (inactive) | > 100 µM (inactive) | > 100 µM (inactive) | > 100 µM (inactive) | > 100 µM (inactive) | > 100 µM (inactive) | > 100 µM (inactive) | > 100 µM (inactive) | > 100 µM (inactive) | > 100 µM (inactive) | > 100 µM (inactive) | > 100 µM (inactive) | > 100 µM (inactive) | > 100 µM (inactive) | > 100 µM (inactive) | > 100 µM (inactive) | > 100 µM (inactive)
10 | CCOC(=O)CNC(=O)C(CSC(=O)N(O)c1ccc(Cl)cc1)NC(=O)CCC(N)C(=O)OCC (stereo not drawn) | 14.8 µM (inactive) | > 50 µM (inactive) | 12.1 µM (inactive) | > 50 µM (inactive) | > 50 µM (inactive) | > 50 µM (inactive) | 24.8 µM (inactive) | > 50 µM (inactive) |  | 36 µM (inactive) | > 50 µM (inactive) | > 50 µM (inactive) | 3.98 µM (inactive) | > 50 µM (inactive) | > 50 µM (inactive) | 19.3 µM (inactive) | 4.14 µM (inactive) | 1.88 µM (inactive) | > 50 µM (inactive) | 11.8 µM (inactive)
